Test results from patent publication US11613538B2, “Method of inhibiting or reducing a viral infection” (PTC Therapeutics, Inc., priority 2009, dated 2023).

System: hypoxia-induced VEGF production in HeLa cells
Assay: cells
Assay type: cell-based, human
Details: Homo sapiens, HeLa

SMILES	EC50 [nM]
CCOC(=O)N1CCc2c([nH]c3ccc(Cl)cc23)[C@@H]1c1ccc(OCCC(O)CNC(=O)c2ccccn2)cc1 (stereo partly drawn) [Compound 1618]	< 8
CCOC(=O)N1CCc2c([nH]c3ccc(Cl)cc23)[C@@H]1c1ccc(OCCC(O)CNC(=O)OC)cc1 (stereo partly drawn) [Compound 1619]	< 8
CCCOC(=O)NCC(O)CCOc1ccc([C@H]2c3[nH]c4ccc(Cl)cc4c3CCN2C(=O)OCC)cc1 (stereo partly drawn) [Compound 1620]	< 8
CCOC(=O)N1CCc2c([nH]c3ccc(Cl)cc23)[C@@H]1c1ccc(OCCC(O)CNC(=O)OCCOC)cc1 (stereo partly drawn) [Compound 1621]	< 8
CCOC(=O)N1CCc2c([nH]c3ccc(Cl)cc23)[C@@H]1c1ccc(OCCC(O)CNS(C)(=O)=O)cc1 (stereo partly drawn) [Compound 1622]	< 8
CCOC(=O)N1CCc2c([nH]c3ccc(Cl)cc23)[C@@H]1c1ccc(OCCC(O)CNS(=O)(=O)CC)cc1 (stereo partly drawn) [Compound 1623]	< 8
CCOC(=O)N1CCc2c([nH]c3ccc(Cl)cc23)[C@@H]1c1ccc(OCCC(O)CNS(=O)(=O)C2CC2)cc1 (stereo partly drawn) [Compound 1624]	< 8
O=C(OCC1CCCC1)N1CCc2c([nH]c3ccc(Cl)cc23)[C@@H]1c1ccc(OCCCO)cc1 [Compound 1630]	< 8
O=C(OCC1CCCC1)N1CCc2c([nH]c3ccc(Cl)cc23)[C@@H]1c1ccc(O)cc1 [Compound 1631]	40 to 200
OCCCOc1ccc([C@H]2c3[nH]c4ccc(Cl)cc4c3CCN2c2nc(C(F)(F)F)cs2)cc1 [Compound 1632]	< 8
OC[C@@H](O)COc1ccc([C@H]2c3[nH]c4ccc(Cl)cc4c3CCN2c2nc(C(F)(F)F)cs2)cc1 [Compound 1633]	< 8
OC[C@H](O)COc1ccc([C@H]2c3[nH]c4ccc(Cl)cc4c3CCN2c2nc(C(F)(F)F)cs2)cc1 [Compound 1634]	< 8
CS(=O)(=O)CCCOc1ccc([C@H]2c3[nH]c4ccc(Cl)cc4c3CCN2C(=O)Oc2ccc(Cl)cc2)cc1 [Compound 1648]	< 8
CCOC(=O)NC[C@@H](O)COc1ccc([C@H]2c3[nH]c4ccc(Cl)cc4c3CCN2C(=O)OCC)cc1 [Compound 1650]	< 8
CCOC(=O)NC[C@H](O)COc1ccc([C@H]2c3[nH]c4ccc(Cl)cc4c3CCN2C(=O)OCC)cc1 [Compound 1651]	< 8
C[Si](C)(C)CCS(=O)(=O)N1CCC(Oc2ccc([C@H]3c4[nH]c5ccc(Cl)cc5c4CCN3C(=O)Oc3ccc(Cl)cc3)cc2)CC1 [Compound 1652]	< 8
CCOC(=O)N1CCc2c([nH]c3ccc(Cl)cc23)[C@@H]1c1ccc(Oc2nc(C)cnc2C)cc1 [Compound 1653]	< 8
CCOC(=O)N1CCc2c([nH]c3ccc(Cl)cc23)[C@@H]1c1ccc(Oc2nccnc2C)cc1 [Compound 1654]	< 8
CCOC(=O)N1CCc2c([nH]c3ccc(Cl)cc23)[C@@H]1c1ccc(Oc2cnc(N)cn2)cc1 [Compound 1655]	40 to 200
CCOC(=O)N1CCc2c([nH]c3ccc(Cl)cc23)[C@@H]1c1ccc(Oc2ncc(CN3CCOCC3)s2)cc1 [Compound 1656]	< 8
CCOC(=O)N1CCc2c([nH]c3ccc(Cl)cc23)[C@@H]1c1ccc(Oc2ncc(CN3CCN(C)CC3)s2)cc1 [Compound 1657]	< 8
O=C(Oc1ccc(Cl)cc1)N1CCc2c([nH]c3ccc(Cl)cc23)[C@@H]1c1ccc(Oc2ncc(CN3CCOCC3)s2)cc1 [Compound 1660]	< 8
CN1CCN(Cc2cnc(Oc3ccc([C@H]4c5[nH]c6ccc(Cl)cc6c5CCN4C(=O)Oc4ccc(Cl)cc4)cc3)s2)CC1 [Compound 1661]	< 8

SMILES	EC50 [nM]
COc1ccc([C@H]2c3[nH]c4ccc(Cl)cc4c3CCN2C(=O)OCC2CCCC2)cc1 [Compound 1662]	8 to 40
CCOC(=O)NC[C@H](O)COc1ccc([C@H]2c3[nH]c4ccc(Cl)cc4c3CCN2C(=O)Oc2ccc(F)cc2)cc1 [Compound 1663]	< 8
CCOC(=O)NC[C@@H](O)COc1ccc([C@H]2c3[nH]c4ccc(Cl)cc4c3CCN2C(=O)Oc2ccc(F)cc2)cc1 [Compound 1664]	< 8
CCOC(=O)NCC(O)CCOc1ccc([C@H]2c3[nH]c4ccc(Cl)cc4c3CCN2C(=O)OCC)cc1 (stereo partly drawn) [Compound 1665]	8 to 40
CC1(C)C(=O)NC(=O)N1CCCOc1ccc(C2c3[nH]c4ccc(Cl)cc4c3CCN2C(=O)Oc2ccc(Cl)cc2)cc1 (stereo not drawn) [Compound 1671]	< 8
O=C1CN(CCCOc2ccc(C3c4[nH]c5ccc(Cl)cc5c4CCN3C(=O)Oc3ccc(Cl)cc3)cc2)C(=O)N1 (stereo not drawn) [Compound 1672]	< 8
CN1C(=O)CN(CCCOc2ccc(C3c4[nH]c5ccc(Cl)cc5c4CCN3C(=O)Oc3ccc(Cl)cc3)cc2)C1=O (stereo not drawn) [Compound 1673]	< 8
CC#CCOC(=O)N1CCc2c([nH]c3ccc(Cl)cc23)[C@@H]1c1ccc(OC2CCN(c3ncccn3)CC2)cc1 [Compound 1678]	< 8
CC#CCOC(=O)N1CCc2c([nH]c3ccc(Cl)cc23)[C@@H]1c1ccc(OC2CCN(CCN3CCOCC3)CC2)cc1 [Compound 1679]	8 to 40
CC#CCOC(=O)N1CCc2c([nH]c3ccc(Cl)cc23)[C@@H]1c1ccc(OC2CCN(C(=O)OCCN3CCOCC3)CC2)cc1 [Compound 1680]	< 8
O=C(Oc1ccc(Cl)cc1)N1CCc2c([nH]c3ccc(Cl)cc23)[C@@H]1c1ccc(OC2CCN(CCN3CCOCC3)CC2)cc1 [Compound 1682]	< 8
CC#CCOC(=O)N1CCc2c([nH]c3ccc(Cl)cc23)[C@@H]1c1ccc(OC2CCNCC2)cc1 [Compound 1683]	8 to 40
CC#CCOC(=O)N1CCc2c([nH]c3ccc(Cl)cc23)[C@@H]1c1ccc(OC2CCN(C)CC2)cc1 [Compound 1684]	8 to 40
O=C(OCC1CCCC1)N1CCc2c([nH]c3ccc(Cl)cc23)[C@@H]1c1ccc(OC[C@H](O)CO)cc1 [Compound 1685]	< 8
O=C(OCC1CCCC1)N1CCc2c([nH]c3ccc(Cl)cc23)[C@@H]1c1ccc(OC[C@@H](O)CO)cc1 [Compound 1686]	< 8
CCC(CO)(CO)COc1ccc([C@H]2c3[nH]c4ccc(Cl)cc4c3CCN2C(=O)OCC2CCCC2)cc1 [Compound 1687]	< 8
COc1ncc(C2NCCc3c2[nH]c2ccc(Cl)cc32)cn1 (stereo not drawn) [Compound 1688]	> 1000
COc1ncc(C2c3[nH]c4ccc(Cl)cc4c3CCN2C(=O)Oc2ccc(Cl)cc2)cn1 (stereo not drawn) [Compound 1689]	8 to 40
COc1ncc(C2c3[nH]c4ccc(Cl)cc4c3CCN2C(=O)Oc2ccc(F)cc2)cn1 (stereo not drawn) [Compound 1690]	8 to 40
CCOC(=O)N1CCc2c([nH]c3ccc(Cl)cc23)C1c1cnc(OC)nc1 (stereo not drawn) [Compound 1691]	40 to 200
CC#CCOC(=O)N1CCc2c([nH]c3ccc(Cl)cc23)C1c1cnc(OC)nc1 (stereo not drawn) [Compound 1692]	8 to 40
O=C(OCCN1CCOCC1)N1CCC(Oc2ccc([C@H]3c4[nH]c5ccc(Cl)cc5c4CCN3C(=O)Oc3ccc(Cl)cc3)cc2)CC1 [Compound 1693]	< 8
CN1CCC(Oc2ccc([C@H]3c4[nH]c5ccc(Cl)cc5c4CCN3C(=O)Oc3ccc(Cl)cc3)cc2)CC1 [Compound 1694]	< 8

SMILES	EC50 [nM]
CCOC(=O)N1CCc2c([nH]c3ccc(Cl)cc23)[C@@H]1c1ccc(OC2OC(CO)C(O)C(O)C2O)cc1 (stereo partly drawn) [Compound 1696]	> 1000
CC#CCOC(=O)N1CCc2c([nH]c3ccc(Cl)cc23)[C@@H]1c1ccc(OC2CCN(C[C@H](O)CO)CC2)cc1 [Compound 1697]	< 8
CCOC(=O)N1CCc2c([nH]c3ccc(Cl)cc23)[C@@H]1c1ccc(OC2COC2)cc1 [Compound 1699]	< 8
CCOC(=O)N1CCc2c([nH]c3ccc(Cl)cc23)[C@@H]1c1ccc(Oc2ncc(CS(C)(=O)=O)s2)cc1 [Compound 1700]	< 8
O=C(Oc1ccc(Cl)cc1)N1CCc2c([nH]c3ccc(Cl)cc23)[C@@H]1c1ccc(OC2CCN(CC[C@H](O)CO)CC2)cc1 [Compound 1703]	200 to 1000
O=C(Oc1ccc(Cl)cc1)N1CCc2c([nH]c3ccc(Cl)cc23)[C@@H]1c1ccc(OC2CCN(C[C@H](O)CO)CC2)cc1 [Compound 1704]	8 to 40
CC#CCOC(=O)N1CCc2c([nH]c3ccc(Cl)cc23)[C@@H]1c1ccc(OC2CCN(CC[C@H](O)CO)CC2)cc1 [Compound 1705]	40 to 200
CCNC(=O)C(=O)N1CCc2c([nH]c3ccc(Cl)cc23)C1c1ccc(OC)cc1 (stereo not drawn) [Compound 1706]	40 to 200
COc1ccc(C2c3[nH]c4ccc(Cl)cc4c3CCN2C(=O)C(=O)NC(C)C)cc1 (stereo not drawn) [Compound 1707]	40 to 200
CCCNC(=O)C(=O)N1CCc2c([nH]c3ccc(Cl)cc23)C1c1ccc(OC)cc1 (stereo not drawn) [Compound 1708]	200 to 1000
COc1ccc(C2c3[nH]c4ccc(Cl)cc4c3CCN2C(=O)C(=O)NC2CCCC2)cc1 (stereo not drawn) [Compound 1710]	40 to 200
COc1ccc(C2c3[nH]c4ccc(Cl)cc4c3CCN2C(=O)C(=O)Nc2ccc(Cl)cc2)cc1 (stereo not drawn) [Compound 1711]	8 to 40
COc1ccc(C2c3[nH]c4ccc(Cl)cc4c3CCN2C(=O)C(=O)Nc2ccc(C)cc2)cc1 (stereo not drawn) [Compound 1712]	8 to 40
COc1ccc(C2c3[nH]c4ccc(Cl)cc4c3CCN2C(=O)C(=O)Nc2ccc(F)cc2)cc1 (stereo not drawn) [Compound 1713]	40 to 200
COc1ccc(C2c3[nH]c4ccc(Cl)cc4c3CCN2C(=O)C(=O)Nc2ccc(C#N)cc2)cc1 (stereo not drawn) [Compound 1716]	200 to 1000
COc1ccc(C2c3[nH]c4ccc(Cl)cc4c3CCN2C(=O)C(=O)OCC2CC2)cc1 (stereo not drawn) [Compound 1717]	8 to 40
COc1ccc(C2c3[nH]c4ccc(Cl)cc4c3CCN2C(=O)C(=O)OCC2CCC2)cc1 (stereo not drawn) [Compound 1718]	8 to 40
COc1ccc(C2c3[nH]c4ccc(Cl)cc4c3CCN2C(=O)C(=O)OC2CCCC2)cc1 (stereo not drawn) [Compound 1719]	> 1000
COc1ccc(C2c3[nH]c4ccc(Cl)cc4c3CCN2C(=O)C(=O)Oc2ccc(Cl)cc2)cc1 (stereo not drawn) [Compound 1720]	> 1000
COc1ccc(C2c3[nH]c4ccc(Cl)cc4c3CCN2C(=O)C(=O)Oc2ccc(C)cc2)cc1 (stereo not drawn) [Compound 1721]	> 1000
COc1ccc(C2c3[nH]c4ccc(Cl)cc4c3CCN2C(=O)C(=O)Oc2ccc(F)cc2)cc1 (stereo not drawn) [Compound 1722]	> 1000
COc1ccc(OC(=O)C(=O)N2CCc3c([nH]c4ccc(Cl)cc34)C2c2ccc(OC)cc2)cc1 (stereo not drawn) [Compound 1723]	> 1000
COc1ccc(C2c3[nH]c4ccc(Cl)cc4c3CCN2C(=O)C(=O)Oc2ccccc2)cc1 (stereo not drawn) [Compound 1724]	> 1000
